{"source": "patent US11701389B2", "about": "“Methods of preserving mesenchymal stem cells” (Emory University, priority 2016, dated 2023)", "system": "T cell proliferation in SEB activated PBMCs", "experiment": "MSC and PBMC coculture, Ki67 T cell proliferation assay", "assay_type": "cell-based, human", "conditions": "for inhibition of T cell proliferation by frozen-thawed MSCs pretreated with inhibitor prior to cryopreservation: Z-VAD-FMK 50 uM or 3-Methyl Adenine 1 mM pretreatment, FIG. 5A, 5B", "note": "Where a SMILES comes first, the peptide text is derived from it. The star is where a group is joined. Cbz = O=C(OCc1ccccc1)*; CH2F = FC*", "data": [{"smiles": "Cn1cc(C[C@H](N)C(=O)O)c2ccccc21", "note": "(racemic) [1-Methyl Tryptophan]", "values": [{"measurement": "effect of IDO blocking on suppression of T-cell proliferation by IFNgamma Cryo MSCs", "setting": "1 mM added to coculture, FIG. 5F", "result": "negates the suppressive effect"}]}, {"smiles": "Cn1cnc(N)c2ncnc1-2", "note": "[3-Methyl Adenine]", "values": [{"measurement": "inhibition of T cell proliferation by frozen-thawed MSCs pretreated with inhibitor prior to cryopreservation", "result": "defective in inhibiting T cell proliferation"}]}, {"smiles": "COC(=O)C[C@H](NC(=O)[C@H](C)NC(=O)[C@@H](NC(=O)OCc1ccccc1)C(C)C)C(=O)CF", "note": "[Z-VAD-FMK] (Cbz-Val-Ala-Asp(OMe)-CH2F)", "values": [{"measurement": "inhibition of T cell proliferation by frozen-thawed MSCs pretreated with inhibitor prior to cryopreservation", "result": "defective in inhibiting T cell proliferation"}]}]}
